From patent US20100138957A1 (priority 2007, published 2010)

Columns and labels:
[1] = test system: Pseudomonas aeruginosa; settings: cited from earlier work
[2] = test system: Xylella fastidiosa; settings: in vivo
[3] = test system: pathogenic Vibrio bacteria; settings: intraperitoneal injection, juvenile coho salmon; cited from earlier work
[4] = test system: human intestinal epithelial cells; settings: cited from earlier work
[5] = test system: 18 bacterial and fungal microorganisms; settings: cited from earlier work

KWKLFKKIGIGAVLKV TTGLPALKTLK [CEMA]
MIC [1]: 2.8 μg per ml

MAKWKLFKKIGIGFKKAAHVGKAALTK [B-passerin]
time plants survived stringent disease challenges with no or lessened visible symptoms [2]: up to 12 months | time surviving plants remained symptomless [2]: over 8 months | transgenic plants that survived the high stringency greenhouse test [2]: 90%

Pleurocidin: 25-residue cationic antimicrobial peptide from skin secretions of winter flounder (GWGSFFKKAAHVGKHVGKAALTHYL; Pleurocidin; UniProt P81941 23-47, looked up)
efficacy against lethal vibriosis compared to CEME [3]: more effective | cytotoxic effects [4]: no cytotoxic effects | microorganisms against which the peptide was effective [5]: 17 of the 18
